Test results from patent US20030113810A1, “Novel assay” (priority 2000, published 2003).

Each molecule was assayed against T1, rGPR41 (Rattus norvegicus, UniProt B2GV46) (assay: Yeast FUS1-lacZ/FUS1-HIS3 reporter assay, rGPR41 in S. cerevisiae MMY22 (Gpa1/Gαo), FDG substrate). Conditions: pH 7.
T1 sequence (B2GV46 1-319): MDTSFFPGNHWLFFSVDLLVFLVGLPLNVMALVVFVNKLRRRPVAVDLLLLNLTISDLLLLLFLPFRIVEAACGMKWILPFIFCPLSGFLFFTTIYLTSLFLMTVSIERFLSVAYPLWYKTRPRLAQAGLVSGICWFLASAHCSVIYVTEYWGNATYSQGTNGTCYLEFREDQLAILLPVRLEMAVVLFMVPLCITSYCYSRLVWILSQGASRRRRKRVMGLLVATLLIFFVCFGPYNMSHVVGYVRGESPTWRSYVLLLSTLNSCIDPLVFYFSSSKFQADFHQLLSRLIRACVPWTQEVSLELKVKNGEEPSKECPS
Format: cell-based
Design: expressed in transfected cells; host or cells: S. cerevisiae MMY22 (A1, A5; Gpa1/Gαo integrated) or MMY11 + pRS314-Gpa1/Gαo (A4), transformed with p426GPD-rGPR41
Experimental: A study was carried out of the function of rGPR41 following expression in S. cerevisiae MMY22, which is a derivative of S. cerevisiae MMY11 containing a copy of the gene encoding the Gpa1/Gαo transplant chimera described above (in which the 5 C-terminal amino acids of Gpa1 are replaced with the 5 C-terminal amino acids of Gαo) integrated into the genome. To do this, a cassette comprising the GPA1 promoter, nucleotide sequence encoding Gpa1/Gαo, and the terminator was sub-cloned from pRS314-Gpa1/Gαo into the yeast integrating plasmid pRS304 (Sikorski and Hieter, 1989). The resulting plasmid pRS304-Gpa1/Gαo was transformed into MMY11 and integrated into the trp1 locus creating MMY22.
The rGPR41 expression construct described above, p462GPD-rGPR41 was introduced into MMY22 by transformation as described above. Four separate transformants were tested for reporter gene activation in response to propionate. Assays for FUS1-lacZ and FUS1-HIS3 induction were performed as described, except the β-galactosidase (lacZ) substrate fluorescein di-β-D-galactopyranoside (FDG) was used in place of CPRG, and 3-aminotriazole concentration was 5 mM. Also, black-walled 96-well microtitre plates were used, and fluorescence resulting from degradation of FDG to fluorescein due to β-galactosidase was determined using a Spectrofluor microtitre plate reader (Tecan)(excitation wavelength: 485 nm; emmision wavelength: 535 nm).
A series of carboxylic acids and other compounds related to propionate were tested for the ability to activate rGPR41. Experiments were performed as described above, using yeast cells of strain MMY22 transformed with rGPR41 expression plasmid p462GPD-rGPR41, except that the agonist propionate was replaced with one of a series of other compounds, which are listed in table 2 below.
In vivo assays of reporter gene induction were carried out by suspending MMY11 cells transformed as described above to a density of 0.02 OD600/ml in 200 μl SC-glucose (2%) medium lacking tryptophan, uracil and histidine. This medium was supplemented with 10 mM 3-aminotriazole and the β-galactosidase (lacZ) substrate chlorophenolred-β-D-galactopyranoside (CPRG; Boehringer Mannheim) to a concentration of 0.1 mg/ml. Additionally the medium was supplemented with various concentrations of the agonist ligand, propionate (sodium propionate, pH 7.0). To visualise the yellow to red colour change reaction occurring on degradation of CPRG due to β-galactosidase, the medium was buffered to pH 7 with 0.1 M sodium phosphate. The assay was conducted in flat-bottomed sterile 96-well microtitre plates. Plates were incubated for 24 hours at 30° C. without agitation, and absorbance at 570 nm was determined using a Spectrofluor microtitre plate reader (Tecan).
With `O=C(O)c1ccccc1` [benzoate] the “Agonism @ rGPR41 Approx. EC50 (M)” value was “Toxic”.
`O=C(O)c1cccnc1` [nicotinic acid] was tested, and the “Agonism @ rGPR41 Approx. EC50 (M)” value was “Inactive”.
`O=CO` [Formate] was tested, and the “Agonism @ rGPR41 Approx. EC50 (M)” value was “Weak active”.
With `O=CC=O` [Glyoxal] the “Agonism @ rGPR41 Approx. EC50 (M)” value was “Toxic”.
`CC(C)=O` [Acetone] was tested, and the “Agonism @ rGPR41 Approx. EC50 (M)” value was “Inactive”.

Same assay, conditions: yeast MMY22, carboxylic acid series C1-C12, FIG. 8
`O=C(O)/C=C/C(=O)O` [Fumarate] was tested, and the “relative agonist activity at rGPR41 (in words)” value (shortened to “relative agonist activity”) was “either inactive or had very weak activities”.
`O=C(O)CC(O)(CC(=O)O)C(=O)O` [Citrate] was tested, and the “relative agonist activity” value was “either inactive or had very weak activities”.
With `O=C(O)CCC(=O)O` [Succinate] the “relative agonist activity” value was “either inactive or had very weak activities”.
For `CCCCCCCCCCCC(=O)O` [Lauric C12 acid], the “relative agonist activity” value was “inactive”.
For `CCCCCCCCC(=O)O` [Nonanoic C9 acid], the “relative agonist activity” value was “inactive”.
For `CCCCCCCCCCC(=O)O` [Undecanoic C11 acid], the “relative agonist activity” value was “inactive”.
In the case of `CCCCC(=O)O` [Pentanoate (n-valerate)], the “relative agonist activity” value is reported as “similarly or slightly more active than propionate”.

Same assay, conditions: yeast MMY22 with p462GPD-rGPR41; FDG fluorescence; compounds as salt solutions buffered to pH 7.0
For `CCCCCC/C=C\CCCCCCCC(=O)O` [Palmitoleic acid], the “Agonism @ rGPR41 Approx. EC50 (M)” value was “Toxic/inactive”.
With `O=C(O)CC(=O)O` [malonate] the “Agonism @ rGPR41 Approx. EC50 (M)” value was “Inactive”.
`CN[C@H](CC(=O)O)C(=O)O` [NMDA] was tested, and the “Agonism @ rGPR41 Approx. EC50 (M)” value was “Inactive”.
In the case of `N[C@@H](CCC(=O)O)C(=O)O` [Glutamate], the “Agonism @ rGPR41 Approx. EC50 (M)” value is reported as “Inactive”.
For `O=C(O)C(F)(F)F` [Trifluoroacetate], the “Agonism @ rGPR41 Approx. EC50 (M)” value was “weak active”.
For `CC(O)C(=O)O` (centres unmarked) [lactate], the “Agonism @ rGPR41 Approx. EC50 (M)” value was “Inactive”.
`O=C1O[C@H]([C@@H](O)CO)C(O)=C1O` [Ascorbate] was tested, and the “Agonism @ rGPR41 Approx. EC50 (M)” value was “Inactive”.
For `CC(N)=O` [acetamide], the “Agonism @ rGPR41 Approx. EC50 (M)” value was “very weak active”.
In the case of `CCCCCCCCCCCCCCCCCC(=O)O` [stearate], the “Agonism @ rGPR41 Approx. EC50 (M)” value is reported as “Inactive”.
`O=C(O)C(O)C(O)C(=O)O` (centres unmarked) [Tartrate] was tested, and the “Agonism @ rGPR41 Approx. EC50 (M)” value was “Inactive”.
`O=C(O)/C=C/C(=O)O` [Fumarate] was tested, and the “Agonism @ rGPR41 Approx. EC50 (M)” value was “Inactive”.
In the case of `CC(=O)C(=O)O` [pyruvate], the “Agonism @ rGPR41 Approx. EC50 (M)” value is reported as “Inactive”.
For `O=C(O)CC(O)(CC(=O)O)C(=O)O` [Citrate], the “Agonism @ rGPR41 Approx. EC50 (M)” value was “Inactive”.
With `CC(=O)CC(=O)O` [Acetoacetate] the “Agonism @ rGPR41 Approx. EC50 (M)” value was “weak active”.
For `CCCCCCCC/C=C\CCCCCCCC(=O)O` [oleate], the “Agonism @ rGPR41 Approx. EC50 (M)” value was “Inactive”.
For `CCCCC/C=C\C/C=C\CCCCCCCC(=O)O` [Linoleic acid], the “Agonism @ rGPR41 Approx. EC50 (M)” value was “Toxic/Inactive”.
For `NCCCC(=O)O` [GABA], the “Agonism @ rGPR41 Approx. EC50 (M)” value was “Inactive”.
With methyl-2-imidazoline the “Agonism @ rGPR41 Approx. EC50 (M)” value was “Toxic/inactive”.
`O=C(O)CCC(=O)O` [Succinate] was tested, and the “Agonism @ rGPR41 Approx. EC50 (M)” value was “Inactive”.
With `O=C(O)CC(=O)C(=O)O` [Oxaloacetate] the “Agonism @ rGPR41 Approx. EC50 (M)” value was “Inactive”.
For `O=C(O)CO` [glycolate], the “Agonism @ rGPR41 Approx. EC50 (M)” value was “weak active”.
In the case of `C/C=C(\C)C(=O)O` [tiglic acid], the “Agonism @ rGPR41 Approx. EC50 (M)” value is reported as “Inactive”.
`CS(=O)(=O)O` [methylsulphonate] was tested, and the “Agonism @ rGPR41 Approx. EC50 (M)” value was “Inactive”.
`CCCCCCCCCCCC(=O)O` [Lauric C12 acid] was tested, and the “Agonism @ rGPR41 Approx. EC50 (M)” value was “inactive/toxic”.
For `CCCCCCCCC(=O)O` [Nonanoic C9 acid], the “Agonism @ rGPR41 Approx. EC50 (M)” value was “inactive/toxic”.
In the case of `CCC(O)C(=O)O` (stereo not drawn) [alpha-hydroxybutyrate], the “Agonism @ rGPR41 Approx. EC50 (M)” value is reported as “Inactive”.
For `CCCCCCCCCCC(=O)O` [Undecanoic C11 acid], the “Agonism @ rGPR41 Approx. EC50 (M)” value was “inactive/toxic”.
For `O=C(O)/C=C\C(=O)O` [maleate], the “Agonism @ rGPR41 Approx. EC50 (M)” value was “Inactive”.
For `CCCCCCCC(=O)O` [Caprylic C8 acid], the “Agonism @ rGPR41 Approx. EC50 (M)” value was “weak active”.

Same assay, conditions: yeast MMY22 with p462GPD-rGPR41; FDG fluorescence; compounds as salt solutions buffered to pH 7.0; read-out: Agonism @ rGPR41 Approx. EC50
In the case of `CCCCCC(=O)O` [Caproic C6 acid], the EC50 is reported as roughly 30 µM.
In the case of `C[C@H](O)CC(=O)O` [L-b-Hydroxybutyrate], the EC50 is reported as roughly 10000 µM.
`O=C(O)CCCO` [γ-hydroxybutyrate] gave an EC50 of roughly 10000 µM.
`O=C(O)C(=O)O` [Oxalate] gave an EC50 of roughly 3000 µM.
For `CCCCCCC(=O)O` [Heptanoic C7 acid], the EC50 was roughly 100 µM.
Molecule `O=CC(=O)O` [Glyoxylic acid] has an EC50 of roughly 50000 µM.
In the case of `CC(C)C(=O)O` [Isobutyrate], the EC50 is reported as roughly 30 µM.
In the case of `CCCC(=O)O` [n-Butyrate], the EC50 is reported as roughly 50 µM.
`CCCCC(=O)O` [Pentanoate (n-valerate)] gave an EC50 of roughly 3 µM.
